{"source": "paper PMC4118284", "about": "(Leukemia, 2012)", "key": {"[1]": {"tested_on": "newly diagnosed patients with FLT3-mutant AML", "conditions": "sorafenib plus induction chemotherapy; 15 newly diagnosed patients with FLT3-mutant AML; cited from earlier work"}, "[2]": {"tested_on": "newly diagnosed patients with acute myeloid leukemia (AML)", "conditions": "50 mg twice daily; either arm"}, "[3]": {"tested_on": "patients with FLT3-mutant and FLT3-wild-type AML", "conditions": "single agent, cited from earlier work; for Patients with ≥ 50% peripheral blood blast reduction: 75 mg three times daily or 50 mg or 100 mg twice daily"}, "[4]": {"tested_on": "newly diagnosed patients with acute myeloid leukemia (AML)", "experiment": "Phase 1b trial: efficacy", "type": "in vivo, human"}, "[5]": {"experiment": "Plasma concentrations of midostaurin and metabolites", "conditions": "for Plasma concentration, Max / Plasma concentration, Median / Plasma concentration, Min: 50 mg BID"}, "[6]": {"conditions": "Concomitant (days 1-7 and 15-21), Induction cycle 1, day 1"}, "[7]": {"conditions": "Concomitant, First consolidation cycle, day 1.5"}, "[8]": {"conditions": "Concomitant, First consolidation cycle, day 15.5"}, "[9]": {"conditions": "Concomitant, First consolidation cycle, day 29.5"}, "[10]": {"conditions": "Concomitant, Induction cycle 1, Day 1 (+ 2 h)"}, "[11]": {"conditions": "Concomitant, Induction cycle 1, Day 1 (+ 4 h)"}, "[12]": {"conditions": "Concomitant, Induction cycle 1, day 2"}, "[13]": {"conditions": "Concomitant, Induction cycle 1, day 4"}, "[14]": {"conditions": "Concomitant, Induction cycle 1, day 15 (+ 2 h)"}, "[15]": {"conditions": "Concomitant, Induction cycle 1, day 15 (+ 4 h)"}, "[16]": {"conditions": "Sequential (days 8-21), Induction cycle 1, day 8"}, "[17]": {"conditions": "Sequential, First consolidation cycle, day 1.5"}, "[18]": {"conditions": "Sequential, First consolidation cycle, day 15.5"}, "[19]": {"conditions": "Sequential, First consolidation cycle, day 29.5"}, "[20]": {"conditions": "Sequential, Induction cycle 1, day 8 (+ 2 h)"}, "[21]": {"conditions": "Sequential, Induction cycle 1, day 8 (+ 4 h)"}, "[22]": {"conditions": "Sequential, Induction cycle 1, day 9"}, "[23]": {"conditions": "Sequential, Induction cycle 1, day 15"}, "[24]": {"conditions": "Sequential, Induction cycle 1, day 22.5"}, "[25]": {"conditions": "Sequential, Induction cycle 1, day 29.5"}}, "note": "Where two headings read alike, the source gives them in different places.", "data": [{"compound": "CNC(=O)c1cc(Oc2ccc(NC(=O)Nc3ccc(Cl)c(C(F)(F)F)c3)cc2)ccn1", "note": "[Sorafenib]", "values": [{"measurement": "CR rate", "setting": "[1]", "value": 93, "unit": "%"}]}, {"compound": "CO[C@@H]1[C@H](N(C)C(=O)c2ccccc2)C[C@H]2O[C@]1(C)n1c3ccccc3c3c4c(c5c6ccccc6n2c5c31)C(=O)NC4", "note": "[midostaurin, Midostaurin]", "values": [{"measurement": "Deaths on treatment or within 28 days of the last dose of study drug", "setting": "[2]", "value": "No deaths"}, {"measurement": "Patients with ≥ 50% peripheral blood blast reduction", "setting": "[3]; FLT3-mutant (n = 55)", "value": 70, "unit": "%"}, {"measurement": "Patients with ≥ 50% peripheral blood blast reduction", "setting": "[3]; FLT3-wild-type (n = 60)", "value": 42, "unit": "%"}, {"measurement": "Complete remissions (CRs)", "setting": "[3]", "value": "not observed"}, {"measurement": "Kaplan-Meier OS probability", "setting": "[4]; 50 mg twice daily, FLT3-mutant AML, 1 year", "value": 0.85}, {"measurement": "Kaplan-Meier OS probability", "setting": "[4]; 50 mg twice daily, FLT3-mutant AML, 2 years", "value": 0.62}, {"measurement": "Complete remission (CR) rate", "setting": "[4]; 50 mg twice daily, FLT3-mutant, 12 of 13 patients", "value": 92, "unit": "%"}, {"measurement": "Kaplan-Meier OS probability", "setting": "[4]; 50 mg twice daily, FLT3-wild-type AML, 1 year", "value": 0.78}, {"measurement": "Kaplan-Meier OS probability", "setting": "[4]; 50 mg twice daily, FLT3-wild-type AML, 2 years", "value": 0.52}, {"measurement": "Complete remission (CR) rate", "setting": "[4]; 50 mg twice daily, FLT3-wild-type, 20 of 27 patients", "value": 74, "unit": "%"}, {"measurement": "Complete remission (CR) rate", "setting": "[4]; 50 mg twice daily, concomitant group, 16 of 20 patients", "value": 80, "unit": "%"}, {"measurement": "Patients who have died", "setting": "[4]; 50 mg twice daily, of four patients with TKD mutations", "value": "none"}, {"measurement": "Complete remission (CR) rate", "setting": "[4]; 50 mg twice daily, sequential group, 16 of 20 patients", "value": 80, "unit": "%"}, {"measurement": "Complete remission rate", "setting": "[4]; 100 mg twice daily (dose schedules I and II), 13 of 29 patients", "value": 45, "unit": "%"}, {"measurement": "Patients surviving more than 4 years", "setting": "[4]; 100 mg twice daily, FLT3-mutant blasts, two patients", "value": 33, "unit": "%"}, {"measurement": "Complete remission rate", "setting": "[4]; 100 mg twice daily, FLT3-wild-type blasts, 8 of 23", "value": 35, "unit": "%"}, {"measurement": "Patients surviving more than 4 years", "setting": "[4]; 100 mg twice daily, FLT3-wild-type blasts, nine patients", "value": 39, "unit": "%"}, {"measurement": "Plasma concentration, Max", "setting": "[5]; [6]", "value": "LLOQ"}, {"measurement": "Plasma concentration, Median", "setting": "[5]; [6]", "value": "LLOQ"}, {"measurement": "Plasma concentration, Min", "setting": "[5]; [6]", "value": "LLOQ"}, {"measurement": "Plasma concentration, Max", "setting": "[5]; [7]", "value": "LLOQ"}, {"measurement": "Plasma concentration, Median", "setting": "[5]; [7]", "value": "LLOQ"}, {"measurement": "Plasma concentration, Min", "setting": "[5]; [7]", "value": "LLOQ"}, {"measurement": "Plasma concentration, Max", "setting": "[5]; [8]", "value": 1040, "unit": "ng/mL"}, {"measurement": "Plasma concentration, Min", "setting": "[5]; [8]", "value": "LLOQ"}, {"measurement": "Plasma concentration, Max", "setting": "[5]; [9]", "value": 83.8, "unit": "ng/mL"}, {"measurement": "Plasma concentration, Median", "setting": "[5]; [9]", "value": "LLOQ"}, {"measurement": "Plasma concentration, Min", "setting": "[5]; [9]", "value": "LLOQ"}, {"measurement": "Plasma concentration, Max", "setting": "[5]; [10]", "value": 2300, "unit": "ng/mL"}, {"measurement": "Plasma concentration, Median", "setting": "[5]; [10]", "value": 1170, "unit": "ng/mL"}, {"measurement": "Plasma concentration, Min", "setting": "[5]; [10]", "value": 355, "unit": "ng/mL"}, {"measurement": "Plasma concentration, Max", "setting": "[5]; [11]", "value": 3380, "unit": "ng/mL"}, {"measurement": "Plasma concentration, Median", "setting": "[5]; [11]", "value": 1010, "unit": "ng/mL"}, {"measurement": "Plasma concentration, Min", "setting": "[5]; [11]", "value": 630, "unit": "ng/mL"}, {"measurement": "Plasma concentration, Max", "setting": "[5]; [12]", "value": 4980, "unit": "ng/mL"}, {"measurement": "Plasma concentration, Median", "setting": "[5]; [12]", "value": 1490, "unit": "ng/mL"}, {"measurement": "Plasma concentration, Min", "setting": "[5]; [12]", "value": "LLOQ"}, {"measurement": "Plasma concentration, Max", "setting": "[5]; [13]", "value": 8710, "unit": "ng/mL"}, {"measurement": "Plasma concentration, Median", "setting": "[5]; [13]", "value": 2355, "unit": "ng/mL"}, {"measurement": "Plasma concentration, Min", "setting": "[5]; [13]", "value": 1680, "unit": "ng/mL"}, {"measurement": "Plasma concentration, Max", "setting": "[5]; [14]", "value": 7300, "unit": "ng/mL"}, {"measurement": "Plasma concentration, Median", "setting": "[5]; [14]", "value": 1870, "unit": "ng/mL"}, {"measurement": "Plasma concentration, Min", "setting": "[5]; [14]", "value": 87.1, "unit": "ng/mL"}, {"measurement": "Plasma concentration, Max", "setting": "[5]; [15]", "value": 7120, "unit": "ng/mL"}, {"measurement": "Plasma concentration, Median", "setting": "[5]; [15]", "value": 1420, "unit": "ng/mL"}, {"measurement": "Plasma concentration, Min", "setting": "[5]; [15]", "value": 96.3, "unit": "ng/mL"}, {"measurement": "Plasma concentration, Min", "setting": "[5]; Concomitant, Induction cycle 1, day 22.5", "value": "LLOQ"}, {"measurement": "Plasma concentration, Min", "setting": "[5]; Concomitant, Induction cycle 1, day 29.5", "value": "LLOQ"}, {"measurement": "Plasma concentration, Max", "setting": "[5]; [16]", "value": "LLOQ"}, {"measurement": "Plasma concentration, Median", "setting": "[5]; [16]", "value": "LLOQ"}, {"measurement": "Plasma concentration, Min", "setting": "[5]; [16]", "value": "LLOQ"}, {"measurement": "Plasma concentration, Max", "setting": "[5]; [17]", "value": 91.2, "unit": "ng/mL"}, {"measurement": "Plasma concentration, Median", "setting": "[5]; [17]", "value": "LLOQ"}, {"measurement": "Plasma concentration, Min", "setting": "[5]; [17]", "value": "LLOQ"}, {"measurement": "Plasma concentration, Max", "setting": "[5]; [18]", "value": 3790, "unit": "ng/mL"}, {"measurement": "Plasma concentration, Median", "setting": "[5]; [18]", "value": 1330, "unit": "ng/mL"}, {"measurement": "Plasma concentration, Min", "setting": "[5]; [18]", "value": 635, "unit": "ng/mL"}, {"measurement": "Plasma concentration, Max", "setting": "[5]; [19]", "value": 4000, "unit": "ng/mL"}, {"measurement": "Plasma concentration, Min", "setting": "[5]; [19]", "value": "LLOQ"}, {"measurement": "Plasma concentration, Max", "setting": "[5]; [20]", "value": 2880, "unit": "ng/mL"}, {"measurement": "Plasma concentration, Median", "setting": "[5]; [20]", "value": 1495, "unit": "ng/mL"}, {"measurement": "Plasma concentration, Min", "setting": "[5]; [20]", "value": 460, "unit": "ng/mL"}, {"measurement": "Plasma concentration, Max", "setting": "[5]; [21]", "value": 3660, "unit": "ng/mL"}, {"measurement": "Plasma concentration, Median", "setting": "[5]; [21]", "value": 1585, "unit": "ng/mL"}, {"measurement": "Plasma concentration, Min", "setting": "[5]; [21]", "value": 635, "unit": "ng/mL"}, {"measurement": "Plasma concentration, Max", "setting": "[5]; [22]", "value": 3290, "unit": "ng/mL"}, {"measurement": "Plasma concentration, Median", "setting": "[5]; [22]", "value": 1680, "unit": "ng/mL"}, {"measurement": "Plasma concentration, Min", "setting": "[5]; [22]", "value": 922, "unit": "ng/mL"}, {"measurement": "Plasma concentration, Max", "setting": "[5]; [23]", "value": 17100, "unit": "ng/mL"}, {"measurement": "Plasma concentration, Median", "setting": "[5]; [23]", "value": 3660, "unit": "ng/mL"}, {"measurement": "Plasma concentration, Min", "setting": "[5]; [23]", "value": 1290, "unit": "ng/mL"}, {"measurement": "Plasma concentration, Max", "setting": "[5]; [24]", "value": 19200, "unit": "ng/mL"}, {"measurement": "Plasma concentration, Median", "setting": "[5]; [24]", "value": 2755, "unit": "ng/mL"}, {"measurement": "Plasma concentration, Min", "setting": "[5]; [24]", "value": 904, "unit": "ng/mL"}, {"measurement": "Plasma concentration, Max", "setting": "[5]; [25]", "value": 4970, "unit": "ng/mL"}, {"measurement": "Plasma concentration, Median", "setting": "[5]; [25]", "value": 57.2, "unit": "ng/mL"}, {"measurement": "Trough concentrations during off-treatment periods", "setting": "[5]; midostaurin 50 mg twice daily", "value": "low or undetectable levels"}]}]}
